The first assay deals with HCV replicon Luc Neo ET. As to the kind of experiment: HCV replication inhibition assay (replicon assay, luciferase reporter). To be noted: Hepatitis C virus; Huh-7 cell lines containing HCV replicon Luc Neo ET; 72 hours with compound; 1 % DMSO; firefly luciferase reporter; concentration that produces 50 % of replication inhibition; read-out: EC50 Replicon LucneoET. The class given is cell-based. As to the method: The compounds according to the present invention were tested for their ability to inhibit HCV replication as follows:
Huh-7 cell lines containing HCV replicon Luc Neo ET (Reblikon) were maintained in DMEM supplemented with 10% SVF, 2 mM glutamine, and 1 X NEAA, 100 U / ml penicillin, and 100 µg / ml streptomycine. Cells were maintained in medium supplemented with 0.5 mg/ml G418, at 37°C and 5% CO2 in a humidified atmosphere. Cells were dissociated at sub confluence with trypsin EDTA 1X.
Replicon Luc Neo ET is bicistronic expression constructs (Lohmann et al, 1999, Science 285, 110-113). In brief, the structural genes of the HCV genome were replaced by heterologous sequences; the gene encoding the neomycin phosphotransferase (NPT) and the internal ribosome entry site (IRES) of the encephalomyocarditis virus (EMCV). The bicistronic construct is therefore composed of the following elements: HCV-IRES nucleotides 1-389 for Luc Neo ET, the NPT gene, the EMCV-IRES directing translation of downstream HCV sequences from NS2 or NS3 up to the authentic 3' end of the genome. HCV Polyprotein of Luc Neo ET replicon harbours the cell culture adaptive mutations E1202G, T1280I, K1846T. G418-resistance is only possible with cells containing high amounts of replicon.
Cells were dissociated the day before addition of compounds and seeded in 96 well-plates at a final concentration of 27 777.77 cells.ml^-1.cm^-2 in 90µl final volume of culture medium per well and were maintained at 37°C and 5% CO2 in a humidified atmosphere for 24 hours. 10 µl of compounds to be tested were added 24 hours after seeding. Final concentration of DMSO was 1 %. Cells were incubated in the presence of compounds for 72 hours after which expression of firefly luciferase reporter gene was quantified. Briefly, culture medium was removed and cells were lysed by addition of 100 µl of lysis buffer containing 125 mM Tris Phosphate ph 7.8, 10 mM EDTA, 5 mM DTT, 50 % glycerol and 5 % Triton. Plates were vortexed 10 min at 1300 rpm. 100µl of luciferin solution 1X were added to each well. Luciferin solution contained 40 mM Tris Phosphate ph 7.8, 0.2 mM EDTA, 67 mM DTT, 2.14 mM MgCl2, 5.4 mM MgSO4, 4.7 x 10^-4 M luciferin, 5.3 x 10^-4 M ATP and 2.7 x 10^-4 M Acetyl co enzyme A. Luminescence was immediately measured with Berthold Microlumat Plus LB 96V luminometer with an integration of 1 sec. Inhibition was calculated using the formula: % inhibition = 1-[(RLUsample-RLUbackground)/(RLUsignal-RLUbackground)].
The Table 1 below illustrates data on the biological activity of compounds of the present invention. Results are expressed as EC50 which is the concentration that produces 50 % of replication inhibition. Table 1. HCV replication inhibition assay
(In general: In antiviral work, replicon cells carry a viral genome segment that copies itself.)
A word on the EC50: it is the midpoint of the concentration-response curve. Take `COc1ccc(CCN2C(=S)N(c3ccc(F)cc3)C(=O)C2CC(=O)Oc2ccc(OC)cc2)cc1` (stereo not drawn) [Example 86, 4-methoxyphenyl 2-[1-(4-fluorophenyl)-3-[2-(4-methoxyphenyl)ethyl]-5-oxo-2-sulfanylideneimidazolidin-4-yl]acetate]: the EC50 is under 30000 nM.

On to `COc1ccc(CCN2C(=S)N(c3ccccc3)C(=O)C2CC(=O)Nc2ccc(N(C)C)cc2)cc1` (stereo not drawn) [Example 51, N-[4-(dimethylamino)phenyl]-2-{3-[2-(4-methoxyphenyl)ethyl]-5-oxo-1-phenyl-2-sulfanylideneimidazolidin-4-yl}acetamide], for which the EC50 is under 500 nM.

`COc1ccc(NC(=O)CC2C(=O)N(c3ccccc3)C(=S)N2CCc2ccc(Cl)cc2)cn1` (stereo not drawn) [Example 59, 2-{3-[2-(4-chlorophenyl)ethyl]-5-oxo-1-phenyl-2-sulfanylideneimidazolidin-4-yl}-N-(6-methoxypyridin-3-yl)acetamide]: the EC50 is under 5000 nM.

As to `COc1ncc(NC(=O)CC2C(=O)N(c3ccc(F)cc3)C(=S)N2CCc2ccc(N(C)C)cc2)cn1` (stereo not drawn) [Example 79, 2-(3-{2-[4-(dimethylamino)phenyl]ethyl}-1-(4-fluorophenyl)-5-oxo-2-sulfanylideneimidazolidin-4-yl)-N-(2-methoxypyrimidin-5-yl)acetamide], the EC50 was under 5000 nM.

Take `CN(C)c1ccc(NC(=O)CC2C(=O)N(c3ccc(F)cc3)C(=O)N2CCc2cccs2)cc1` (stereo not drawn) [Example 45, N-[4-(dimethylamino)phenyl]-2-[1-(4-fluorophenyl)-2,5-dioxo-3-[2-(thiophen-2-yl)ethyl]imidazolidin-4-yl]acetamide]: the EC50 is under 5000 nM.

In the case of `COc1ccc(CCN2C(=O)N(c3ccc(F)cc3)C(=O)C2CC(=O)Nc2ccc(OC)nn2)cc1` (stereo not drawn) [Example 71, 2-[1-(4-fluorophenyl)-3-[2-(4-methoxyphenyl)ethyl]-2,5-dioxoimidazolidin-4-yl]-N-(6-methoxypyridazin-3-yl)acetamide], the EC50 is under 30000 nM.

`NC(=O)c1ccc(NC(=O)CC2C(=O)N(c3ccccc3)C(=S)N2CCc2ccc(Cl)cc2)cc1` (stereo not drawn) [Example 40, 4-(2-{3-[2-(4-chlorophenyl)ethyl)-5-oxo-1-phenyl-2-sulfanylideneimidazolidin-4-yl}acetamido)benzamide]: the 50% effective concentration (EC50) was under 5000 nM.

On to `CN(C)c1ccc(CCN2C(=O)N(c3ccc(F)cc3)C(=O)C2CC(=O)Nc2ccc(N(C)C)cc2)cc1` (stereo not drawn) [Example 49, N-[4-(dimethylamino)phenyl]-2-(3-{2-[4-(dimethylamino)phenyl]ethyl}-1-(4-fluorophenyl)-2,5-dioxoimidazolidin-4-yl)acetamide], for which the EC50 was under 500 nM.

`COc1ccc(CCN2C(=S)N(c3ccccc3)C(=O)C2CC(=O)Nc2ccc(C)nn2)cc1` (stereo not drawn) [Example 68, 2-{3-[2-(4-methoxyphenyl)ethyl]-5-oxo-1-phenyl-2-sulfanylideneimidazolidin-4-yl}-N-(6-methylpyridazin-3-yl)acetamide]: the EC50 is under 30000 nM.

For the compound `COc1ccc(CCCN2C(=S)N(c3ccc(F)cc3)C(=O)C2CC(=O)Nc2ccc(OC)cn2)cc1` (stereo not drawn) [Example 92, 2-[1-(4-fluorophenyl)-3-[3-(4-methoxyphenyl)propyl]-5-oxo-2-sulfanylideneimidazolidin-4-yl]-N-(5-methoxypyridin-2-yl)acetamide], the 50% effective concentration (EC50) is under 500 nM.

As to `COc1ccc(CCN2C(=S)N(c3ccc(F)cc3)C(=O)C2CC(=O)Nc2ncc(OC)cn2)cc1` (stereo not drawn) [Example 84, 2-[1-(4-fluorophenyl)-3-[2-(4-methoxyphenyl)ethyl]-5-oxo-2-sulfanylideneimidazolidin-4-yl]-N-(5-methoxypyrimidin-2-yl)acetamide], the EC50 is under 500 nM.

For the compound `COc1ccc(CCCCN2C(=S)N(c3ccc(F)cc3)C(=O)C2CC(=O)Nc2ccc(OC)cn2)cc1` (stereo not drawn) [Example 93, 2-[1-(4-fluorophenyl)-3-[4-(4-methoxyphenyl)butyl]-5-oxo-2-sulfanylideneimidazolidin-4-yl]-N-(5-methoxypyridin-2-yl)acetamide], the EC50 is under 500 nM.

Turning to `COc1ccc(NC(=O)CC2C(=O)N(c3ccc(F)cc3)C(=S)N2CCc2ccc(Cl)cc2)nc1` (stereo not drawn) [Example 66, 2-{3-[2-(4-chlorophenyl)ethyl]-1-(4-fluorophenyl)-5-oxo-2-sulfanylideneimidazolidin-4-yl}-N-(5-methoxypyridin-2-yl)acetamide], the EC50 was under 500 nM.

As to `COc1ccc(CCN2C(=S)N(c3ccc(F)cc3)C(=O)C2CC(=O)Nc2ncc(OC)s2)cc1` (stereo not drawn) [Example 88, 2-[1-(4-Fluorophenyl)-3-[2-(4-methoxyphenyl)ethyl]-5-oxo-2-sulfanylideneimidazolidin-4-yl]-N-(5-methoxy-1,3-thiazol-2-yl)acetamide], the EC50 was under 500 nM.

On to `COc1ccc(CCN2C(=S)N(c3ccc(F)cc3)C(=O)C2CC(=O)Nc2ccc(N3CCCC3=O)cc2)cc1` (stereo not drawn) [Example 87, 2-[1-(4-fluorophenyl)-3-[2-(4-methoxyphenyl)ethyl]-5-oxo-2-sulfanylideneimidazolidin-4-yl]-N-[4-(2-oxopyrrolidin-1-yl)phenyl]acetamide], for which the EC50 is under 5000 nM.

Consider `O=C(CC1C(=O)N(c2ccccc2)C(=S)N1CCc1ccc(Cl)cc1)Nc1ccc(Cl)c(Cl)c1` (stereo not drawn) [Example 38, 2-{3-[2-(4-chlorophenyl)ethyl]-5-oxo-1-phenyl-2-sulfanylideneimidazolidin-4-yl}-N-(3,4-dichlorophenyl)acetamide], for which the EC50 was under 5000 nM.

Regarding `COCCN(C)c1ccc(NC(=O)CC2C(=O)N(c3ccc(F)cc3)C(=O)N2CCc2ccc(OC)cc2)cc1` (stereo not drawn) [Example 43, 2-[1-(4-fluorophenyl)-3-[2-(4-methoxyphenyl)ethyl]-2,5-dioxoimidazolidin-4-yl]-N-{4-[(2-methoxyethyl)(methyl)amino]phenyl}acetamide], the 50% effective concentration (EC50) is under 5000 nM.

For `COc1ccc(CCN2C(=O)N(c3ccc(F)cc3)C(=O)C2CC(=O)Nc2ccc(N(C)C)c(C)c2)cc1` (stereo not drawn) [Example 44, N-[4-(dimethylamino)-3-methylphenyl]-2-[1-(4-fluorophenyl)-3-[2-(4-methoxyphenyl)ethyl]-2,5-dioxoimidazolidin-4-yl]acetamide], the 50% effective concentration (EC50) was under 30000 nM.

The same assay, now with this note: Huh-7 cell lines containing HCV replicon Luc Neo ET; 72 hours with compound; 1 % DMSO; firefly luciferase reporter; concentration that produces 50 % of replication inhibition; read-out: EC50 Replicon LucneoET.
As for `CCCOc1ccc(NC(=O)CC2C(=O)N(C3CCCCC3)C(=S)N2Cc2ccc(OC)cc2)cc1` (stereo not drawn) [Example 29], the EC50 was under 30000 nM.

Turning to `COc1ccc(NC(=O)CC2C(=O)N(c3ccc(C)cc3)C(=S)N2CCc2ccccc2)cc1` (stereo not drawn) [Example 26], the EC50 is under 5000 nM.

For the compound `COc1ccc(NC(=O)CC2C(=O)N(c3ccc(F)cc3)C(=S)N2CCc2ccc(Cl)cc2)cc1` (stereo not drawn) [Example 9], the EC50 was under 500 nM.

As for `COc1ccc(NC(=O)CC2C(=O)N(c3ccccc3)C(=O)N2CCC2=CCCCC2)cc1` (stereo not drawn) [Example 12], the EC50 is under 500 nM.

As for `COc1ccc(NC(=O)CC2C(=O)N(c3ccc(F)cc3)C(=S)N2CCc2ccc(OCCNC(=O)OC(C)(C)C)cc2)nc1` (stereo not drawn) [Example 98], the EC50 was under 500 nM.

For the compound `CCCOc1ccc(NC(=O)CC2C(=O)N(c3ccccc3)C(=S)N2CCc2ccccc2)cc1` (stereo not drawn) [Example 1], the half-maximal effective concentration (EC50) is under 500 nM.

On to `COc1ccc(/C=C/N2C(=S)N(c3ccc(F)cc3)C(=O)C2CC(=O)Nc2ccc(OC)cn2)cc1` (stereo not drawn) [Example 95], for which the concentration giving a half-maximal response (EC50) is under 500 nM.

Take `COc1ccc(CCN2C(=S)N(c3ccccc3)C(=O)C2CC(=O)Nc2ccc(OC)cc2)cc1` (stereo not drawn) [Example 3]: the EC50 is under 500 nM.

For the compound `COc1ccc(CCN2C(=S)N(c3ccc(F)cc3)C(=O)C2CC(=O)Nc2c(F)cc(OC)cc2F)cc1` (stereo not drawn) [Example 97], the EC50 is under 500 nM.

For the compound `COc1ccc(NC(=O)CC2C(=O)N(c3ccc(F)cc3)C(=S)N2CCCN2CCN(c3ccccc3)CC2)cc1` (stereo not drawn) [Example 14], the EC50 is under 500 nM.

For the compound `COc1ccc(NC(=O)CC2C(=O)N(c3ccccc3)C(=S)N2CCc2ccc(Cl)cc2)cc1` (stereo not drawn) [Example 5], the EC50 is under 500 nM.

With “2-{3-[2-(4-chlorophenyl)ethyl]-1-(4-fluorophenyl)-4-hydroxy-5-oxo-2-sulfanylideneimidazolidin-4-yl}-N-[4-(dimethylamino)phenyl]acetamide [Example 65]”, the EC50 is under 500 nM.

For the origin of these results see patent publication EP2664616A1, “Hydantoin and thiohydantoin derivatives as antiviral drugs” (priority 2012, dated 2013).
